Reference: patent US7648711B2, “Dimethicone-containing sustained release injection formulation” (priority 2003, dated 2010)
Read-outs that look alike come from different tables or passages of the source.

Experiment: Solubility of therapeutic drugs in dimethicone
Assay type: physicochemical
Excerpt: Thus, from the view point of bio-compatibility, dimethicone is suitable to be used as medium to prepare formulation for subcutaneous injection. […] Therefore, this will not pose any stability problem when using silicone as medium to prepare suspensions comprising the aforesaid drugs, which is one of the important factors usually affecting the sustained action of a long-lasting formulation. […] When hydrogenated castor oil used within the proper range (0.2% to 0.5%), the resulting liquid suspension is better in terms of stability, fluidibility, injectability and long-lasting releasing effect than the injection formulation prepared using water, vegetable oil or other organic liquid as the suspension medium. Hydrogenated castor oil functions as a suspending agent and enhances the effect of sustained releasing. In addition, when the formulation of the present invention is prepared by the micro powder crystallizing method, the presence of hydrogenated castor oil suppresses the growth of the crystal nucleus of active ingredients, whereby producing micro powder of active ingredients with a particle size of 20 micrometers or smaller. (4) By mixing the active ingredients with hydrogenated castor oil or with the-combination of hydrogenated castor oil and ethylcellulose to produce solid dispersion micro powder with particle size smaller than 300 micrometers, then dispersing the micro powder in silicone oil and grinding with a colloid mill or a ball mill, a long lasting release formulation containing solid dispersion of various particle sizes (from 10 micrometer to 150 micrometers) can be produced. Further, the sustained releasing effect of the formulation may be modified by adjusting the particle size of the solid dispersion and the proportion of hydrogenated castor oil relative to the active ingredients. For instance, sustained release formulations with various durations of effectiveness may be prepared as follows: mixing avermectins with hydrogenated castor oil to produce two solid dispersions with the avermectins to hydrogenated castor oil equal to 1:2 and 2:1, respectively, then mixing the two solid dispersions at a given ratio and dispersing the mixture in silicone oil, and producing the solid dispersion in the system with the particle size varying between 85 micrometers to 120 micrometers by controlling the extent of grinding. The formulation can provide an effective sustained releasing period up to 140 days following a single administration. Furthermore, the injection prepared by the above method has better injectability, stability and biocompatibility than water or vegetable oil based sustained release formulations for solid dispersion micro powder of avermectins/hydrogenated castor oil. Specifically, the formulation using water as medium has three disadvantages. First, it has difficulty to maintain an effective sustained releasing for more than 80 days. Second, it has poor injectability and, without adding more water soluble suspension assisting agents, solid suspension phase may “separate” from the water phase, causing injection failure due to blocking of the syringe needle. Third, it results in tissue lumps around the injection site. Other organic liquid based long-lasting formulations have similar problems.

Compound	Solubility in dimethicone	Solubility in dimethicone (dimethicone)
CC1(C)S[C@@H]2[C@H](NC(=O)Cc3ccccc3)C(=O)N2[C@H]1C(=O)[O-].[K+] [penicillin G potassium salt]	less than 0.01%	
CO/N=C(\C(=O)N[C@@H]1C(=O)N2C(C(=O)O)=C(CSC(=O)c3ccco3)CS[C@H]12)c1csc(N)n1 [ceftiofur]	less than 0.01%	
O=[N+]([O-])NC1=NCCN1Cc1ccc(Cl)nc1 [imidacloprid]	less than 0.01%	
O=C(NC(=O)c1c(F)cccc1F)Nc1ccc(Cl)cc1 [diflubenzuron]		less than 0.01%
CC1(C)S[C@@H]2[C@H](NC(=O)Cc3ccccc3)C(=O)N2[C@H]1C(=O)[O-].[Na+] [penicillin G sodium salt]	less than 0.01%	
